Values joined by “and” are separate entries in the source; they are usually repeats but may differ in a detail not shown here. Identical values can stand only once.
Test: CIA study: animal body weight
Settings: for Animal body weight percent change (%): individual animals; for Average animal body weight / Average animal body weight percent change: CIA

Compound: Cn1cc(-c2ccccc2)c(-c2cn(C)c(=O)c3[nH]c(-c4cnn(C(F)(F)F)c4)cc23)cc1=O [Compound A, 6-methyl-4-(1-methyl-2-oxo-5-phenyl-1,2-dihydropyridin-4-yl)-2-(1-(trifluoromethyl)-1H-pyrazol-4-yl)-1,6-dihydro-7H-pyrrolo[2,3-c]pyridin-7-one]
- Animal body weight percent change (%) (Day 9, Group 5 (CIA + Compound A 1 mg/kg), 1 mg/kg): 9.09% and −4.88% and 8.02% and 6.58% and 2.37% and 1.80% and 3.68%
- Animal body weight percent change (%) (Day 9, Group 6 (CIA + Compound A 3 mg/kg), 3 mg/kg): −3.57% and 0.00% (2×) and 1.71% and 1.20% and 4.19% and 8.28% and 2.56%
- Average animal body weight (Day 10, 1 mg/kg): 170
- Average animal body weight percent change (Day 10, 1 mg/kg): 4.20%
- Average animal body weight (Day 10, 3 mg/kg): 168
- Average animal body weight percent change (Day 10, 3 mg/kg): 1.65%
- Average animal body weight (Day 10, 10 mg/kg): 164
- Average animal body weight percent change (Day 10, 10 mg/kg): 0.89%
- Animal body weight percent change (%) (Day 10, Group 5 (CIA + Compound A 1 mg/kg), 1 mg/kg): 7.88% and −5.49% and 9.88% and 9.21% and 0.59% and 5.39% and 1.84%
- Animal body weight percent change (%) (Day 10, Group 6 (CIA + Compound A 3 mg/kg), 3 mg/kg): −3.57% and 0.58% and 1.14% and 1.80% and 0.60% and 2.45% and 6.37%
- Average animal body weight (Day 11, 1 mg/kg): 170
- Average animal body weight percent change (Day 11, 1 mg/kg): 4.25%
- Average animal body weight (Day 11, 3 mg/kg): 169
- Average animal body weight percent change (Day 11, 3 mg/kg): 1.92%
- Average animal body weight (Day 11, 10 mg/kg): 165
- Average animal body weight percent change (Day 11, 10 mg/kg): 1.44%
- Animal body weight percent change (%) (Day 11, Group 5 (CIA + Compound A 1 mg/kg), 1 mg/kg): 9.09% and −4.27% and 9.88% and 6.58% and 0.59% and 4.79% and 2.45%
- Animal body weight percent change (%) (Day 11, Group 6 (CIA + Compound A 3 mg/kg), 3 mg/kg): −4.76% and 0.58% and 1.71% and 2.99% and −4.19% and 3.68% and 9.55%
- Average animal body weight (Day 12, 1 mg/kg): 171
- Average animal body weight percent change (Day 12, 1 mg/kg): 4.85%
- Average animal body weight (Day 12, 3 mg/kg): 167
- Average animal body weight percent change (Day 12, 3 mg/kg): 0.97%
- Average animal body weight (Day 12, 10 mg/kg): 164
- Average animal body weight percent change (Day 12, 10 mg/kg): 1.36%
- Animal body weight percent change (%) (Day 12, Group 5 (CIA + Compound A 1 mg/kg), 1 mg/kg): 10.30% and −3.66% and 8.64% and 6.58% and 2.96% and 5.99% and 1.23%
- Animal body weight percent change (%) (Day 12, Group 6 (CIA + Compound A 3 mg/kg), 3 mg/kg): −5.95% and 2.92% and 2.86% and 0.00% and −5.39% and 3.68% and 9.55%
- Average animal body weight (Day 13, 1 mg/kg): 169
- Average animal body weight percent change (Day 13, 1 mg/kg): 3.78%
- Average animal body weight (Day 13, 3 mg/kg): 167
- Average animal body weight percent change (Day 13, 3 mg/kg): 0.88%
- Average animal body weight (Day 13, 10 mg/kg): 163
- Average animal body weight percent change (Day 13, 10 mg/kg): 0.66%
- Animal body weight percent change (%) (Day 13, Group 5 (CIA + Compound A 1 mg/kg), 1 mg/kg): 9.09% and −3.66% and 10.49% and 5.26% and 2.96% and 2.99% and 1.23%
- Animal body weight percent change (%) (Day 13, Group 6 (CIA + Compound A 3 mg/kg), 3 mg/kg): −3.57% and 2.34% and −5.14% and 3.59% and −5.99% and 3.07% and 8.92%
- Average animal body weight (Day 14, 1 mg/kg): 170
- Average animal body weight percent change (Day 14, 1 mg/kg): 3.90%
- Average animal body weight (Day 14, 3 mg/kg): 167
- Average animal body weight percent change (Day 14, 3 mg/kg): 0.99%
- Average animal body weight (Day 14, 10 mg/kg): 162
- Average animal body weight percent change (Day 14, 10 mg/kg): 0.03%
- Animal body weight percent change (%) (Day 14, Group 5 (CIA + Compound A 1 mg/kg), 1 mg/kg): 7.88% and −3.05% and 10.49% and 1.97% and 3.55% and 1.80% and 3.07%
- Animal body weight percent change (%) (Day 14, Group 6 (CIA + Compound A 3 mg/kg), 3 mg/kg): −2.98% and 3.51% and −2.86% and 4.79% and −6.59% and 2.45% and 8.28%
- Average animal body weight (Day 15, 1 mg/kg): 168
- Average animal body weight percent change (Day 15, 1 mg/kg): 3.24%
- Average animal body weight (Day 15, 3 mg/kg): 166
- Average animal body weight percent change (Day 15, 3 mg/kg): 0.37%
- Average animal body weight (Day 15, 10 mg/kg): 162
- Average animal body weight percent change (Day 15, 10 mg/kg): 0.13%
- Average animal body weight (Day 16, 1 mg/kg): 167
- Average animal body weight percent change (Day 16, 1 mg/kg): 2.62%
- Average animal body weight (Day 16, 3 mg/kg): 165
- Average animal body weight percent change (Day 16, 3 mg/kg): −0.37%
- Average animal body weight (Day 16, 10 mg/kg): 161
- Average animal body weight percent change (Day 16, 10 mg/kg): −0.57%
- Average animal body weight (Day 17, 1 mg/kg): 167
- Average animal body weight percent change (Day 17, 1 mg/kg): 2.48%
- Average animal body weight (Day 17, 3 mg/kg): 163
- Average animal body weight percent change (Day 17, 3 mg/kg): −1.43%
- Average animal body weight (Day 17, 10 mg/kg): 161
- Average animal body weight percent change (Day 17, 10 mg/kg): −0.47%
- Average animal body weight (Day 18, 1 mg/kg): 167
- Average animal body weight percent change (Day 18, 1 mg/kg): 2.38%
- Average animal body weight (Day 18, 3 mg/kg): 164
- Average animal body weight percent change (Day 18, 3 mg/kg): −1.11%
- Average animal body weight (Day 18, 10 mg/kg): 162
- Average animal body weight percent change (Day 18, 10 mg/kg): −0.29%
- Average animal body weight (Day 19, 1 mg/kg): 166
- Average animal body weight percent change (Day 19, 1 mg/kg): 1.46%
- Average animal body weight (Day 19, 3 mg/kg): 163
- Average animal body weight percent change (Day 19, 3 mg/kg): −1.74%
- Average animal body weight (Day 19, 10 mg/kg): 161
- Average animal body weight percent change (Day 19, 10 mg/kg): −0.70%
- Average animal body weight (Day 20, 1 mg/kg): 166
- Average animal body weight percent change (Day 20, 1 mg/kg): 1.92%
- Average animal body weight (Day 20, 3 mg/kg): 162
- Average animal body weight percent change (Day 20, 3 mg/kg): −2.24%
- Average animal body weight (Day 20, 10 mg/kg): 161
- Average animal body weight percent change (Day 20, 10 mg/kg): −0.54%
- Average animal body weight (Day 21, 1 mg/kg): 165
- Average animal body weight percent change (Day 21, 1 mg/kg): 0.93%
- Average animal body weight (Day 21, 3 mg/kg): 162
- Average animal body weight percent change (Day 21, 3 mg/kg): −1.78%
- Average animal body weight (Day 21, 10 mg/kg): 161
- Average animal body weight percent change (Day 21, 10 mg/kg): −0.75%

— patent publication US20260217701A1, “SELECTIVE BET INHIBITORS AND USES THEREOF” (Tay Therapeutics Limited, priority 2022, published 2026)
